Several values for one entry are separate records, joined by “and”; a condition that tells them apart may be missing. Identical values can stand only once.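 Where inhibition never reached the appropriate level, the endpoint shown equals the highest concentration tested. Otherwise, values were interpolated linearly from a five-concentration, 48-hour dose response in 96-well plates. GI50 marks 50% less growth. TGI: concentration producing complete growth inhibition.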
Assays:
Assay in all cases: NCI anticancer screen, dose series, 48 h
[1] = tested on: UACC-257 melanoma
[2] = tested on: HCT-15 colon
[3] = tested on: IGROV1 ovarian
[4] = tested on: UACC-62 melanoma
[5] = tested on: OVCAR-4 ovarian
[6] = tested on: A549 NSCLC
[7] = tested on: 786-0 renal
[8] = tested on: SK-MEL-2 melanoma
[9] = tested on: SR leukemia
[10] = tested on: NCI/ADR-RES ovarian

Row | Compound | TGI [1] | TGI [2] | TGI [3] | TGI [4] | TGI [5] | TGI [6] | TGI [7] | TGI [8] | TGI [9] | TGI [10] | GI50 [1] | GI50 [2] | GI50 [3] | GI50 [4] | GI50 [5] | GI50 [6] | GI50 [7] | GI50 [8] | GI50 [9] | GI50 [10]
1 | COC(=O)c1cc(CNCCc2c[nH]c3ccccc23)on1 | > 100 µM | > 100 µM | > 100 µM | > 100 µM | > 83.3 µM | > 100 µM | > 94.6 µM | > 100 µM | > 100 µM | > 100 µM |  |  |  |  |  |  |  |  |  | 
2 | N#Cc1ccccc1C#C/C=C\C#Cc1cnccn1 | > 82.3 µM | > 61 µM | > 100 µM | > 89.9 µM | > 100 µM | > 95 µM | > 79.3 µM | > 100 µM | > 79.7 µM | > 30.6 µM | 26.5 µM | 20.6 µM | 38.1 µM | 14.5 µM | 36 µM | 29.8 µM | 21 µM | 8.34 µM | > 20.7 µM | 4.32 µM
3 | Cn1cc(C2=C(c3cn(CCCSC(=N)N)c4ccccc34)C(=O)NC2=O)c2ccccc21 | 6.73 µM | 11.1 µM | 12.3 µM | 5.7 µM | 9.88 µM | 12.9 µM | 10.9 µM | 5.2 µM | 1.69 µM | > 25 µM | 3.22 µM | 4.71 µM | 3.03 µM | 2.54 µM | 3.23 µM | 4.73 µM | 4.71 µM | 1.53 µM | 0.585 µM | > 25 µM
4 | O=C(CN1C(=O)c2ccccc2C1=O)NC1(C(=O)O)CCCC1 | > 100 µM | > 100 µM | > 100 µM | > 100 µM | > 100 µM | > 100 µM | > 100 µM | > 100 µM | > 100 µM | > 100 µM |  |  |  |  |  |  |  |  |  | 
5 | CC(CCC/C=C/CCCN(C)C(=N)N)CC(C)C1OC(=O)C(C)C(O)/C=C/C(C)C(O)C(C)C(O)C(C)C(O)CCCC(O)CC2(O)OC(CC(OC(=O)CC(=O)O)CC(O)CC(O)C(C)C(O)/C=C/C=C/C1C)CC(O)C2O (stereo not given) | 4.29 µM and 6.29 µg/mL | 5.33 µM and 28.9 µg/mL | 5.01 µM and 12.4 µg/mL | 4.52 µM and 19.1 µg/mL | 6.66 µM and 18.4 µg/mL | 5.63 µM and 16.8 µg/mL | 7.6 µM and 17.5 µg/mL | 23 µM and 20.5 µg/mL | 4.88 µM and 47 µg/mL | 20.4 µM and 34.3 µg/mL | 2.16 µM and 1.98 µg/mL | 2.35 µM and 11.9 µg/mL | 2.51 µM and 3.12 µg/mL | 2.13 µM and 8.05 µg/mL | 2.65 µM and 7.59 µg/mL | 2.45 µM and 4.42 µg/mL | 2.8 µM and 5.3 µg/mL | 7.22 µM and 10.2 µg/mL | 2.59 µM and 3.67 µg/mL | 5.99 µM and 15.9 µg/mL
6 | CCN(CC)CCCC(C)NC(=S)N/N=C(\C)c1ccccn1 (stereo not given) | 31.2 µM | > 100 µM | > 100 µM | > 100 µM | > 100 µM | > 100 µM | 12 µM | > 100 µM | > 100 µM | > 100 µM | 3.16 µM | 2.49 µM | 5.64 µM | 3.02 µM | 3 µM | 3.75 µM | 2.83 µM | 5.54 µM | 2.45 µM | 15.6 µM
7 | Cc1ccc(SCN2CCCCC2)cc1 (tested in a mixture with another compound) | 30.6 µM | 32 µM | 10.9 µM | 27.7 µM | 43.8 µM | 72.8 µM | 29.9 µM | 31.1 µM | 25.6 µM | 57.5 µM |  |  |  |  |  |  |  |  |  | 

Reference: PubChem BioAssay (NCI)
